Literature values, collected in patent publication US10446758B2, “Hole transporting material, OLED display panel and electronic device comprising the same” (SHANGHAI TIANMA AM-OLED CO., LTD., priority 2016, dated 2019).

Conditions: prior art material, background statement

- solubility (in words): good
SMILES: CC1(C)c2ccccc2-c2ccc(N(c3ccc4c(c3)C3(c5ccccc5-c5ccccc53)c3ccccc3-4)c3ccccc3-c3ccccc3)cc21
